Reference: the supplement of paper PMC10307832

Assays:
Assay in all cases: relative viability (nuclei count vs DMSO), 5 days (fraction); higher = more cells survive
Seliciclib = compound: CC[C@H](CO)Nc1nc(NCc2ccccc2)c2ncn(C(C)C)c2n1 [Seliciclib]
How it was run: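 Lung cancer cell lines in 1536-well plates were kept overnight at 37 °C, then pinned with five library-drug doses (not always all listed) spaced by √10 on vehicle-anchored plates. After 5 days without medium change, cells were fixed, permeabilised and Hoechst-stained in one step, imaged at 4×, and nuclei were counted with MetaXpress. Viability is treated-well nuclei divided by vehicle-well nuclei, taken as the median over plates. Plates passed only with control CV below 25% and at least one doubling.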

Seliciclib + Olaparib = compound: CC[C@H](CO)Nc1nc(NCc2ccccc2)c2ncn(C(C)C)c2n1 [Seliciclib] + O=C(c1cc(Cc2n[nH]c(=O)c3ccccc23)ccc1F)N1CCN(C(=O)C2CC2)CC1 [Olaparib] (partner 8 µM)
How it was run: (§1)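 Relative viability is defined as nuclei in treated wells over nuclei in vehicle wells. Duplicate plates were run and medians reported. Lung cancer cell lines in 1536-well plates were dosed by pin tool one day after seeding, with one drug or with a fixed anchor-drug dose plus five library-drug doses (not always all listed) in √10 steps, and nuclei were counted after 5 days.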

Seliciclib + Lapatinib = compound: CC[C@H](CO)Nc1nc(NCc2ccccc2)c2ncn(C(C)C)c2n1 [Seliciclib] + CS(=O)(=O)CCNCc1ccc(-c2ccc3ncnc(Nc4ccc(OCc5cccc(F)c5)c(Cl)c4)c3c2)o1 [Lapatinib] (partner 2 µM)
How it was run: as §1

Seliciclib + Foretinib = compound: CC[C@H](CO)Nc1nc(NCc2ccccc2)c2ncn(C(C)C)c2n1 [Seliciclib] + COc1cc2c(Oc3ccc(NC(=O)C4(C(=O)Nc5ccc(F)cc5)CC4)cc3F)ccnc2cc1OCCCN1CCOCC1 [Foretinib] (partner 0.25 µM)
How it was run: as §1

Seliciclib + Crizotinib = compound: CC[C@H](CO)Nc1nc(NCc2ccccc2)c2ncn(C(C)C)c2n1 [Seliciclib] + C[C@@H](Oc1cc(-c2cnn(C3CCNCC3)c2)cnc1N)c1c(Cl)ccc(F)c1Cl [Crizotinib] (partner 1 µM)
How it was run: as §1

Seliciclib + Phenformin = compound: CC[C@H](CO)Nc1nc(NCc2ccccc2)c2ncn(C(C)C)c2n1 [Seliciclib] + N=C(N)NC(=N)NCCc1ccccc1 [Phenformin] (partner 250 µM)
How it was run: as §1

Seliciclib + Navitoclax = compound: CC[C@H](CO)Nc1nc(NCc2ccccc2)c2ncn(C(C)C)c2n1 [Seliciclib] + CC1(C)CCC(c2ccc(Cl)cc2)=C(CN2CCN(c3ccc(C(=O)NS(=O)(=O)c4ccc(N[C@H](CCN5CCOCC5)CSc5ccccc5)c(S(=O)(=O)C(F)(F)F)c4)cc3)CC2)C1 [Navitoclax] (partner 0.5 µM)
How it was run: as §1

Seliciclib + Linsitinib = compound: CC[C@H](CO)Nc1nc(NCc2ccccc2)c2ncn(C(C)C)c2n1 [Seliciclib] + C[C@]1(O)C[C@@H](c2nc(-c3ccc4ccc(-c5ccccc5)nc4c3)c3c(N)nccn32)C1 [Linsitinib] (partner 1 µM)
How it was run: as §1

Seliciclib + Decitabine = compound: CC[C@H](CO)Nc1nc(NCc2ccccc2)c2ncn(C(C)C)c2n1 [Seliciclib] + Nc1ncn([C@H]2C[C@H](O)[C@@H](CO)O2)c(=O)n1 [Decitabine] (partner 2 µM)
How it was run: as §1

Seliciclib + Alpelisib = compound: CC[C@H](CO)Nc1nc(NCc2ccccc2)c2ncn(C(C)C)c2n1 [Seliciclib] + Cc1nc(NC(=O)N2CCC[C@H]2C(N)=O)sc1-c1ccnc(C(C)(C)C(F)(F)F)c1 [Alpelisib] (partner 2 µM)
How it was run: as §1

Seliciclib + Pictilisib = compound: CC[C@H](CO)Nc1nc(NCc2ccccc2)c2ncn(C(C)C)c2n1 [Seliciclib] + CS(=O)(=O)N1CCN(Cc2cc3nc(-c4cccc5[nH]ncc45)nc(N4CCOCC4)c3s2)CC1 [Pictilisib] (partner 1 µM)
How it was run: as §1

Cell Line: A549
- relative viability (Seliciclib; 0.08 µM): 0.914
- relative viability (Seliciclib; 0.253 µM): 0.985
- relative viability (Seliciclib; 0.8 µM): 0.931
- relative viability (Seliciclib; 2.53 µM): 0.906
- relative viability (Seliciclib; 8 µM): 0.81
- relative viability (Seliciclib + Olaparib; first compound 0.08 µM): 0.3
- relative viability (Seliciclib + Olaparib; first compound 0.253 µM): 0.41
- relative viability (Seliciclib + Olaparib; first compound 0.8 µM): 0.251
- relative viability (Seliciclib + Olaparib; first compound 2.53 µM): 0.26
- relative viability (Seliciclib + Olaparib; first compound 8 µM): 0.361
- relative viability (Seliciclib + Lapatinib; first compound 0.08 µM): 1
- relative viability (Seliciclib + Lapatinib; first compound 0.253 µM): 0.913
- relative viability (Seliciclib + Lapatinib; first compound 0.8 µM): 0.991
- relative viability (Seliciclib + Lapatinib; first compound 2.53 µM): 0.981
- relative viability (Seliciclib + Lapatinib; first compound 8 µM): 0.623
- relative viability (Seliciclib + Foretinib; first compound 0.08 µM): 0.919
- relative viability (Seliciclib + Foretinib; first compound 0.253 µM): 0.985
- relative viability (Seliciclib + Foretinib; first compound 0.8 µM): 0.895
- relative viability (Seliciclib + Foretinib; first compound 2.53 µM): 0.966
- relative viability (Seliciclib + Foretinib; first compound 8 µM): 0.775
- relative viability (Seliciclib + Crizotinib; first compound 0.08 µM): 0.674
- relative viability (Seliciclib + Crizotinib; first compound 0.253 µM): 0.82
- relative viability (Seliciclib + Crizotinib; first compound 0.8 µM): 0.799
- relative viability (Seliciclib + Crizotinib; first compound 2.53 µM): 0.809
- relative viability (Seliciclib + Crizotinib; first compound 8 µM): 0.591
- relative viability (Seliciclib + Phenformin; first compound 0.08 µM): 0.154
- relative viability (Seliciclib + Phenformin; first compound 0.8 µM): 0.183
- relative viability (Seliciclib + Phenformin; first compound 2.53 µM): 0.171
- relative viability (Seliciclib + Phenformin; first compound 8 µM): 0.127
- relative viability (Seliciclib + Navitoclax; first compound 0.08 µM): 1.08
- relative viability (Seliciclib + Navitoclax; first compound 0.253 µM): 1.06
- relative viability (Seliciclib + Navitoclax; first compound 0.8 µM): 1.21
- relative viability (Seliciclib + Navitoclax; first compound 2.53 µM): 1.19
- relative viability (Seliciclib + Navitoclax; first compound 8 µM): 0.925
- relative viability (Seliciclib + Linsitinib; first compound 0.08 µM): 0.599
- relative viability (Seliciclib + Linsitinib; first compound 0.253 µM): 0.473
- relative viability (Seliciclib + Linsitinib; first compound 0.8 µM): 0.434
- relative viability (Seliciclib + Linsitinib; first compound 2.53 µM): 0.651
- relative viability (Seliciclib + Linsitinib; first compound 8 µM): 0.446
- relative viability (Seliciclib + Decitabine; first compound 0.08 µM): 0.279
- relative viability (Seliciclib + Decitabine; first compound 0.253 µM): 0.235
- relative viability (Seliciclib + Decitabine; first compound 0.8 µM): 0.188
- relative viability (Seliciclib + Decitabine; first compound 2.53 µM): 0.286
- relative viability (Seliciclib + Decitabine; first compound 8 µM): 0.248
- relative viability (Seliciclib + Alpelisib; first compound 0.08 µM): 0.763
- relative viability (Seliciclib + Alpelisib; first compound 0.253 µM): 0.67
- relative viability (Seliciclib + Alpelisib; first compound 0.8 µM): 0.696
- relative viability (Seliciclib + Alpelisib; first compound 2.53 µM): 0.656
- relative viability (Seliciclib + Alpelisib; first compound 8 µM): 0.458
- relative viability (Seliciclib + Pictilisib; first compound 0.08 µM): 0.501
- relative viability (Seliciclib + Pictilisib; first compound 0.253 µM): 0.595
- relative viability (Seliciclib + Pictilisib; first compound 0.8 µM): 0.525
- relative viability (Seliciclib + Pictilisib; first compound 2.53 µM): 0.507
- relative viability (Seliciclib + Pictilisib; first compound 8 µM): 0.273
